{
  "source": "patent US8722867B2",
  "about": "“Gene therapy vectors and cytosine deaminases” (priority 2008, dated 2014)",
  "system": "TU-2449 tumors",
  "assay": "HPLC analysis of 5-FC and 5-FU in excised TU-2449 tumors",
  "format": "in vivo, mice",
  "conditions": "Groups 2 and 3: PBS instead of vector, 5-FC 250 or 500 mg/kg IP",
  "method": "The study consisted of 6 groups of female mice (see Table below). All groups underwent intracranial administration into the right striatum of 1E4 TU-2449 cells administered/mouse on Day 0. At Day 4, all groups received intracranial/intratumoral administration of AC3-YCD2 (V) vector at 2.4E6 TU/5 ul (Lot#T511019) or PBS buffer control.\nAC3-yCD2 (V) (5 μL) was infused at 0.33 μL per minute (15 minutes, followed by a hold of 5 minutes) intracranially at the same coordinates as TU-2449 cells were injected.\nFrom each brain, tumors were isolated and trimmed if large enough for multiple analyses (more than 0.05 g). Tumors sections for HPLC analysis were crushed in a 1.5 mL centrifuge tube using a plunger from a 1 mL syringe. Crushed samples were mixed with 150 uL RIPA buffer and vortexed vigorously for 10 minutes. Samples were spun at 4° C. at 20000 rcf for 10 minutes. Supernatants were removed and mixed thoroughly with 150 uL of 10% trichloroacetic acid and spun as above. […] Data was expressed in relative milli absorbance units (mAU) of peak area from the chromatograms.",
  "data": [
    {"smiles": "Nc1nc(=O)[nH]cc1F", "note": "[5-FC, 5-fluorocytosine]", "values": [
      {"measurement": "5-FC and 5-FU HPLC signals in tumor", "result": "detectable 5-FC signals but no signal for 5-FU"}
    ]}
  ]
}
